The text below walks through data of patent US20170348306A1, “METHODS OF TREATING CANCER” (GLAXOSMITHKLINE LLC, priority 2011, published 2017).

What all share (test): Cell proliferation assay (6 days, CellTiter-Glo)
Holding throughout (assay type): cell-based
(In ATP-based viability assays light output follows the ATP content of the culture.)

In one experiment the test system is BC-2. The following applies: Homo sapiens, 144 h, AIDS-BCBL, EZH2 WT, read-out: AVERAGE GROWTH IC50. From the text:
(§1) Thus, Example 22 and Table 6 better reflect the inhibition of HZH2 inhibitors on cell lines, e.g. the lymphoma cell lines. DLBCL cell lines were the most sensitive to EZH2 inhibition (FIG. 11a). […] Evaluation of GSK126 in additional lymphoma cell lines and extensive genomic and epigenomic characterization will be required to fully elucidate the determinants of sensitivity among lymphoma subtypes.
(§2) Biochemical assays utilized the 5-member PRC2 complex (human Flag-EZH2, EED, SUZ12, AEBP2, RbAp48) containing either WT or mutant EZH2, [^3H-]SAM and the indicated peptide substrate; reactions were incubated for 30 minutes. Global histone modification levels were determined by ELISA or western blot methods using antibodies specific for total histone H3, H3K27me1, H3K27me2, or H3K27me3. Cell proliferation and Caspase-3/7 activity were assessed using CellTiter-Glo and Caspase-Glo 3/7 (Promega), respectively. Gene expression profiling was conducted using Affymetrix Human Genome U133 Plus 2.0 microarrays. Differentially-expressed probe sets were determined by fitting the data to a linear model using the limma statistical package (http://www.bioconductor.org) and carrying out pair-wise contrasts of treated versus control. Significant probe sets were filtered for detection (log2 signal threshold of 8), an average fold-change >2 or <−2, or >1.5 or <−1.5, where indicated, with p-values adjusted for multiple testing correction by FDR (Benjamini Hochberg)<0.1. H3K27me3 ChIP reads were aligned using Bowtie (56). H3K27me3 enrichment peaks were identified using SICER (57) with optimized parameters. A custom PERL script was utilized to quantify the average basal H3K27me3 ChIP-seq tag density across gene sets. All in vivo studies were conducted after review by the Institutional Animal Care and Use Committee at GSK and in accordance with the GSK Policy on the Care, Welfare and Treatment of Laboratory Animals. GSK126 and vehicle were administered to mice intraperitoneally. Two-tailed t-tests were conducted assuming two samples of equal variance.
(§3) The optimal cell seeding was determined empirically for all cell lines by examining the growth of a wide range of seeding densities in a 384-well format to identify conditions that permitted proliferation for 6 days. […] Plates were incubated for 6 days at 37° C. in 5% CO2. Cells were then lysed with CellTiter-Glo (Promega) and chemiluminescent signal was detected with a TECAN Safire2 microplate reader. In addition, an untreated plate of cells was harvested at the time of compound addition (T0) to quantify the starting number of cells. CTG values obtained after the 6 day treatment were expressed as a percent of the T0 value and plotted against compound concentration.

For the next experiment, the system named is CA46. Conditions: Homo sapiens, 144 h, BURKITT, EZH2 D185H (HET), read-out: AVERAGE GROWTH IC50.
Text: as §1, §2, §3

A further experiment deals with CRO-AP2. The following applies: Homo sapiens, 144 h, PEL, AIDS-BCBL, EZH2 WT, read-out: AVERAGE GROWTH IC50.
Text: as §1, §2, §3

The next experiment concerns DB. The following applies: Homo sapiens, 144 h, DLBCL, EZH2 Y641N (HET), read-out: AVERAGE GROWTH IC50.
Text: as §1, §2, §3

The next experiment relates to Daudi. The following applies: Homo sapiens, 144 h, BURKITT, EZH2 WT, read-out: AVERAGE GROWTH IC50.
Text: as §1, §2, §3

The test system of the next experiment is HD-MY-Z. The following applies: Homo sapiens, 144 h, HODGKIN'S, EZH2 WT, read-out: AVERAGE GROWTH IC50.
Text: as §1, §2, §3

The next experiment has as its system Hs 445. The following applies: Homo sapiens, 144 h, HODGKIN'S, EZH2 WT, read-out: AVERAGE GROWTH IC50.
Text: as §1, §2, §3

The test system of another experiment is KARPAS-1106P. The following applies: Homo sapiens, 144 h, MLBCL, EZH2 E744A (HET), read-out: AVERAGE GROWTH IC50.
Text: as §1, §2, §3

The test system of a further experiment is MC116. Conditions: Homo sapiens, 144 h, B-NHL, EZH2 WT, read-out: AVERAGE GROWTH IC50.
Text: as §1, §2, §3

The next experiment has as its system NU-DUL-1. The following applies: Homo sapiens, 144 h, B-NHL, EZH2 WT, read-out: AVERAGE GROWTH IC50.
Text: as §1, §2, §3

For a further experiment, the system named is P3HR-1. Conditions: Homo sapiens, 144 h, BURKITT, EZH2 WT, read-out: AVERAGE GROWTH IC50.
Text: as §1, §2, §3

Another experiment has as its system RL. The following applies: Homo sapiens, 144 h, DLBCL, EZH2 Y641N, D185H (HET), read-out: AVERAGE GROWTH IC50.
Text: as §1, §2, §3

The next experiment has as its system Raji. The following applies: Homo sapiens, 144 h, BURKITT, EZH2 WT, read-out: AVERAGE GROWTH IC50.
Text: as §1, §2, §3

A further experiment relates to SU-DHL-10. The following applies: Homo sapiens, SU-DHL10, 144 h, DLBCL, EZH2 Y641F (HET), read-out: AVERAGE GROWTH IC50.
Text: as §1, §2, §3

A further experiment concerns SU-DHL-16. The following applies: Homo sapiens, 144 h, B-NHL, EZH2 D185H (HET), read-out: AVERAGE GROWTH IC50.
Text: as §1, §2, §3

Another experiment deals with SU-DHL-4. Conditions: Homo sapiens, 144 h, DLBCL, EZH2 Y641S (HET), Y661N (HET), read-out: AVERAGE GROWTH IC50.
Text: as §1, §2, §3

Another experiment relates to WILL-1. Conditions: Homo sapiens, 144 h, DLBCL, EZH2 D185H (HET), read-out: AVERAGE GROWTH IC50.
Text: as §1, §2, §3

The subject of a further experiment is WILL-2. Conditions: Homo sapiens, 144 h, DLBCL, EZH2 WT, read-out: AVERAGE GROWTH IC50.
Text: as §1, §2, §3

A further experiment concerns WSU-DLCL2. Conditions: Homo sapiens, WSUDLCL2, 144 h, DLBCL, EZH2 Y641F (HET), read-out: AVERAGE GROWTH IC50.
Text: as §1, §2, §3

What is called IC50 is the concentration needed to halve the response being measured. `CC[C@H](C)n1cc(C)c2c(C(=O)NCc3c(C)cc(C)[nH]c3=O)cc(-c3ccc(N4CCNCC4)nc3)cc21` [GSK126]: the IC50 with BC-2 came out at 4.76 µM; in the experiment on CA46 it was 6.58 µM; with CRO-AP2 it was 1.64 µM; in the experiment on DB, 0.861 µM; in the experiment on Daudi it was 1.27 µM; with HD-MY-Z it was 10.7 µM. Moreover, the concentration for half-maximal inhibition (IC50) was 3.53 µM in the experiment on Hs 445; 4.54 µM with KARPAS-1106P; 10.2 µM with MC116; 17.1 µM in the experiment with NU-DUL-1; 3.21 µM with P3HR-1; 4.73 µM in the experiment on RL. Moreover, the IC50 was 7.87 µM in the experiment on Raji; 0.448 µM with SU-DHL-10; 3.28 µM in the experiment with SU-DHL-16; 4.83 µM with SU-DHL-4; 5.53 µM with WILL-1; 27.5 µM in the experiment on WILL-2. Besides, in the experiment with WSU-DLCL2, the IC50 came out at 0.134 µM.
